Results: patent US20220288137A1, “Bifidobacterium Longum Subsp. Infantis CCFM687 and Fermented Food and Application Thereof” (Jiangnan University, priority 2018, published 2022)

Tested on: depressed mice (chronic unpredictable stress depression mouse model)
Experiment: Butyric acid content in the caecum of depressed mice (GC-MS)
Type: in vivo, C57BL/6J mice
Details: 6 weeks intervention (CCFM687 10^9 cfu or fluoxetine 10 mg/kg), GC-MS of cecal content (FIG. 3)
Protocol: 32 6-week-old male C57BL/6J mice were selected. After one week of adaptation to the environment, the mice were randomly divided into four groups according to body weight: a control group, a model group, a fluoxetine intervention group, and a CCFM687 intervention group, each containing 8 mice.
Chronic unpredictable stress depression mouse model: 1-2 kinds of stimuli were randomly performed every day, and the performance time of stimuli every day was determined randomly to avoid the circadian rhythm. Each method was used for not more than three times, and the stimuli were performed for five weeks. The stimuli include: (1) fasting for 24 h; (2) water deprivation+empty bottle stimulus for 24 h; (3) tail pinching for 3 min; (4) wet padding for 24 h; (5) immobilization for 1-2 h; (6) 45° tilted cage for 24 h; (7) continuous lighting for 24 h; (8) no padding for 24 h; (9) forced swim for 15 min; and (10) separation for 24 h. […]
The mice in Example 2 were euthanized at the sixth weekend, and the content of the cecum of the mice was collected. […] 500 μL of supernatant was taken into a gas phase vial, and the contents of short-chain fatty acids (acetic acid, propionic acid, isobutyric acid, butyric acid and isovaleric acid) were measured by GC-MS. […] The analysis adopted a full scan mode, and the concentration of each short-chain fatty acid (μmol/g) was calculated by an external standard method. […]

CNCCC(Oc1ccc(C(F)(F)F)cc1)c1ccccc1 (stereo not shown) [fluoxetine]
butyric acid content in the caecum / intestine: has no regulating effect on the butyric acid content
